Reference: patent US5446147A (Trustees of the University of Pennsylvania, priority 1992, dated 1995)
Entries after “also recorded” stand apart in the source; their conditions may differ.

Key:
Dopamine D-2 Receptors = conditions: Table II, known dopamine D-2 receptor ligands; cited from earlier work
[1] = molecular target: T1, dopamine D2 receptor (Rat Striatal Membranes) (Rattus norvegicus, UniProt P61169); assay: Competition for ^125 I-FIDA-2 binding to rat striatal membranes
T1 construct: Rat tissue homogenates were prepared as described previously; from tissue; host or cells: rat striatal membranes (tissue homogenate)
Experimental: (§1) Rat tissue homogenates were prepared as described previously. Murphy, R. A., et al., J. Med. Chem. 33, 171-178 (1990). The binding assays were performed by incubating 50 μL of tissue preparations containing 40-60 μg of protein with appropriate amounts of ^125 I-labeled ligand and competitors in a total volume of 0.2 mL of the assay buffer. After an incubation period of 15 min at 37° C. (with stirring), the samples were rapidly filtered in a cell harvester (Brandel M-24R) under vacuum through Whatman GF/B glass-fiber filters pretreated with […] protamine base and washed with 3×5 mL of cold (4° C.) 50 mM Tris-HCI buffer, pH 7.4. The nonspecific binding was obtained in the presence of 10 μM (+)butaclamol. The filters were counted in a γ counter (Beckman 5500) at an efficiency of 70%. Both Scatchard and competition experiments were analyzed with the iterative nonlinear least squares curve-fitting program LIGAND.

[2] = In vivo biodistribution in rats (organ uptake); set-up: species or system rat; conditions: iv; for liver uptake (in words): first 30 min
Experimental: Male Sprague-Dawley rats (225-300 g), which were allowed free access to food and water, were used for the vivo biodistribution study. […] The organs of interest were removed and weighed and the radioactivity was counted with a Beckman gamma automatic counter (Model 4000). The percent dose per organ was calculated by a comparison of the tissue counts to suitably diluted aliquots of the injected material. Total activities of blood and muscle were calculated under the assumption that they were 7% and 40% of the total body weight, respectively.

[3] = test system: dopamine receptors (striatum); assay: Regional brain distribution in rats (uptake ratio of region to cerebellum); format: in vivo, rat; conditions: iv
Experimental: Male Sprague-Dawley rats (225-300 g), which were allowed free access to food and water, were used for the vivo biodistribution study. While under halothane anesthesia, 0.2 mL of a saline solution containing [^125 I]FIDA 8 or 10 (8-10 μCi) was injected […] into the femoral vein of rats, and they were sacrificed at various time points postinjection by cardiac excision under halothane anesthesia. The organs of interest were removed and weighed and the radioactivity was counted with a Beckman gamma automatic counter (Model 4000). The percent dose per organ was calculated by a comparison of the tissue counts to suitably diluted aliquots of the injected material. Total activities of blood and muscle were calculated under the assumption that they were 7% and 40% of the total body weight, respectively.
Regional brain distribution in rats was obtained after an injection of [^125 I]FIDA 8 or 10. By dissecting, weighing, and counting samples from different brain regions (cortex, striatum, hippocampus, and cerebellum), the percent dose/gram of sample was calculated by comparing the sample counts with the count of the diluted initial dose. The uptake ratio of each region was obtained by dividing the percent dose/gram of each region by that to the cerebellum.

[4] = molecular target: T1, dopamine D2 receptor (Rat Striatal Membranes); assay: Competition for ^125 I-FIDA-1 binding to rat striatal membranes
Experimental: as §1

[5] = rat striatal membranes, 15 min at 37° C., nonspecific binding with 10 μM (+)butaclamol, read-out: Ki, inhibition constant on ^125 I-FIDA-2 binding

T1 sequence (P61169 whole entry): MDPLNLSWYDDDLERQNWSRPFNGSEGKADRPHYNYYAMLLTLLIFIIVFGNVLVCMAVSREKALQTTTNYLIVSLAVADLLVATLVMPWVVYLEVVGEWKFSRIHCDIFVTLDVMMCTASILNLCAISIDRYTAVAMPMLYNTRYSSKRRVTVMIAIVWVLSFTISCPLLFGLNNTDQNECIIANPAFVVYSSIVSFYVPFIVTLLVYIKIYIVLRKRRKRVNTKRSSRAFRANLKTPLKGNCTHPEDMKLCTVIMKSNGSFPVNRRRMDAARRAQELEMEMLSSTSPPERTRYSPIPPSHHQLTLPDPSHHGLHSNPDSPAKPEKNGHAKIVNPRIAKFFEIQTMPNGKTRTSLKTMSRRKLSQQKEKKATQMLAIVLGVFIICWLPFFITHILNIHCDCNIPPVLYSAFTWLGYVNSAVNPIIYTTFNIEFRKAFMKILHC

## CCN1CCC[C@H]1CNC(=O)c1c(O)c(I)cc(OC)c1OC [Ioxipride]
Dopamine D-2 Receptors
  Kd: 0.019 nM

## COC(=O)[C@@H]1[C@H]2C[C@H]3c4[nH]c5ccccc5c4CCN3C[C@@H]2CC[C@@H]1O [yohimbine]
[1]; [5]
  Ki: 505 ± 70 nM

## CCN1CCC[C@H]1CNC(=O)c1cc([123I])cc(OC)c1OCCF [[^123 I]FIDA1]
[2]
  brain uptake (in words): moderate brain uptake
  liver clearance (in words): rapidly washed out at 1 h postinjection
  liver uptake (in words): remained high for the first 30 min
[2]; 1 h after injection
  brain washout (in words): a large portion of the radioactivity has washed out from the brain; also recorded: the radioactivity had washed out from the brain
[3]
  increase in target to nontarget ratio vs. time, hippocampus and cortex: not observed
  retention in striatum (in words): prolonged retention
[3]; 30 min
  striatum/cerebellum (ST/CB) ratio: 8.26
[3]; 60 min
  striatum/cerebellum (ST/CB) ratio: 29.3
[3]; printed 10 min
  striatum/cerebellum (ST/CB) ratio: 60.7

## COc1cc([123I])cc(C(=O)NC[C@H]2CCCN2Cc2ccc(F)cc2)c1OC [[^123 I]FIDA2]
[2]
  brain uptake (in words): better brain uptake in rats than [^123 I]FIDA1; also recorded: higher brain uptake than [^123 I]FIDA1
  liver clearance (in words): slower than it was for [^123 I]FIDA1
  liver uptake (in words): High initial uptake in the liver
[2]; time not stated
  brain uptake: 0.98 % dose/organ
[3]; 2 min
  ST/CB ratio: 1.2
[3]; 120 min
  ST/CB ratio: 25.2

## CCN1CCC[C@H]1CNC(=O)c1cc(CCCF)cc(OC)c1OC [Fluoropropyl-Epidepride]
Dopamine D-2 Receptors
  Kd: 0.03 nM

## CCN1CCC[C@H]1CNC(=O)c1cc(I)cc2c1OCC2 [IBF]
Dopamine D-2 Receptors
  Kd: 0.106 nM

## COc1cc(I)cc(C(=O)NC[C@H]2CCCN2Cc2ccc(F)cc2)c1OC [FIDA2, R(+)-2,3-dimethoxy-N-[(1-(4' -fluorobenzyl)-2-pyrrolidinyl)methyl]-5-iodobenzamide]
[1]; competition study with various types of receptor ligands
  binding specificity and selectivity (FIDA2 radioligand): specifically binds to the dopamine D2 receptor with great selectivity

## CCN1CCC[C@H]1CNC(=O)c1c(O)c(Cl)cc(Cl)c1OC [Raclopride]
Dopamine D-2 Receptors
  Kd: 10 nM

## CCN1CCC[C@H]1CNC(=O)c1c(OC)ccc(I)c1O [IBZM]
Dopamine D-2 Receptors
  Kd: 0.426 nM

## CN1[C@@H]2CC[C@H]1C[C@@H](OC(=O)C(CO)c1ccccc1)C2 (stereo partly drawn) [atropine]
[1]
  Ki: > 10000 nM
[4]
  Ki: > 10000 nM

## COc1cccc(OC)c1OCCNCC1COc2ccccc2O1 (stereo not drawn) [WB 4101]
[1]; [5]
  Ki: 23.3 ± 2.2 nM
[4]; rat striatal membranes, 15 min at 37° C., nonspecific binding with 10 μM (+)butaclamol, read-out: Ki, inhibition constant on ^125 I-FIDA-1 binding
  Ki: 33.1 ± 1.5 nM

## CCN1CCC[C@H]1CNC(=O)c1cc(I)cc(OC)c1OC [Epidepride]
Dopamine D-2 Receptors
  Kd: 0.024 nM
